Data from patent US10308632B2, “Antifungal compounds and processes for making” (VPS-3, Inc., priority 2015, dated 2019).

Columns and labels:
Assay type in all cases: physicochemical
[1] = Gravimetric/dynamic vapor sorption (GVS/DVS) moisture sorption isotherm; conditions: for GVS hysteresis: 0-90% RH range; for moisture uptake by GVS: at 90% RH; for GVS water uptake: over 0-90% RH range, 25° C.; for XRPD post GVS: sample re-analysed by XRPD after isotherm
Method: Gravimetric Vapor Sorption (GVS) isotherms were obtained using a SMS DVS Intrinsic moisture sorption analyser, controlled by DVS Intrinsic Control software v1.0.1.2 (or v 1.0.1.3). The sample temperature was maintained at 25° C. by the instrument controls. The humidity was controlled by mixing streams of dry and wet nitrogen, with a total flow rate of 200 mL/min The relative humidity was measured by a calibrated Rotronic probe (dynamic range of 1.0-100% RH), located near the sample. The weight change, (mass relaxation) of the sample as a function of % RH was constantly monitored by the microbalance (accuracy ±0.005 mg). Typically. 10-15 mg of sample was placed in a tared mesh stainless steel basket under ambient conditions. The sample was loaded and unloaded at 40% RH and 25° C. (typical room conditions). A moisture sorption isotherm was performed as outlined below (2 scans giving 1 complete cycle). The standard isotherm was performed at 25° C. at 10% RH intervals over a 0-90% RH range. Data analysis was undertaken in Microsoft Excel using DVS Analysis Suite v6.2 (or 6.1 or 6.0). [table] The sample was recovered after completion of the isotherm and re-analysed by XRPD.

[2] = XRPD stability after 7 days storage at elevated humidity
Method: X-Ray Powder Diffraction patterns were collected on a Bruker AXS C2 GADDS diffractometer using Cu Kα radiation (40 kV, 40 mA), automated XYZ stage, laser video microscope for auto-sample positioning and a HiStar 2-dimensional area detector. X-ray optics consists of a single Göbel multilayer mirror coupled with a pinhole collimator of 0.3 mm. A weekly performance check is carried out using a certified standard NIST 1976 Corundum (flat plate). The beam divergence, i.e. the effective size of the X-ray beam on the sample, was approximately 4 mm. A Θ-Θ continuous scan mode was employed with a sample—detector distance of 20 cm which gives an effective […] of 3.2°-29.7°. Typically the sample would be exposed to the X-ray beam for 120 seconds. The software used for data collection was GADDS for XP/2000 4.1.43 and the data were analysed and presented using Diffrac Plus EVA v13.0.0.2 or v15.0.0.0. Samples run under ambient conditions were prepared as flat plate specimens using powder as received without grinding. Approximately 1-2 mg of the sample was lightly pressed on a glass slide to obtain a flat surface. Samples run under non-ambient conditions were mounted on a silicon wafer with heat-conducting compound. The sample was then heated to the appropriate temperature at 30° C./min and subsequently held isothermally for 1 minute before data collection was initiated. X-Ray Powder Diffraction patterns were also collected on a Bruker D8 diffractometer using Cu Kα radiation (40 kV, 40 mA), θ-2θ goniometer, and divergence of V4 and receiving slits, a Ge monochromator and a Lynxeye detector. The instrument is performance checked using a certified Corundum standard (NIST 1976). The software used for data collection was Diffrac Plus XRD Commander v2.6.1 and the data were analysed and presented using Diffrac Plus EVA v15.0.0.0. Samples were run under ambient conditions as flat plate specimens using powder as received. The sample was gently packed into a cavity cut into polished, zero-background (510) silicon wafer. The sample was rotated in its own plane during analysis. The details of the data collection are: Angular range: 2 to 42° 2 θ; Step size: 0.05° 2θ; Collection time: 0.5 s/step.

[3] = Thermo-gravimetric analysis (TGA), decomposition onset; conditions: heated at 10° C./min
Method: Thermo-gravimetric analysis (TGA) data were collected on a TA Instruments Discovery TGA, equipped with a 25 position auto-sampler. The instrument was temperature calibrated using certified alumel and nickel. Typically, 3-10 mg of each sample was loaded onto a pre-tared aluminium pan and heated at 10° C./min from ambient temperature to 350° C. A nitrogen purge at 25 mL/min was maintained over the sample. The instrument control and data analysis software was TRIOS v3.2.0.3877.

[4] = Competitive slurry experiments of Form 1 and Form 2 (thermodynamic stability); conditions: temperature range investigated (5° C., 25° C., 50° C.)
Method: The melt of Form 1 of compound 5 was determined by DSC to be at 129.0° C. with an enthalpy of −46 J/g. A melt endotherm was not determined for Form 2 as it transforms to Form 1 upon heating at different rates. […] These experiments were performed in IPA, ethanol and toluene. To conduct these experiments a solid mixture of Forms 1 and 2 (<18 mg per sample) was suspended in the corresponding saturated solution of compound 5 and stirred at the desired temperature. Saturated solutions of compound 5 were prepared at 50° C. by dissolving 40 mg, 60 mg and 200 mg of sample in 1.4 mL of IPA, 0.8 mL of ethanol and 0.8 mL of toluene, respectively. The slurries were filtered, air-dried and analyzed by XRPD after stirring for up to 10 days at the desired temperature. […] All the experiments except for that performed in IPA at 5° C. gave pure Form 1.

[5] = Variable temperature XRPD (VT-XRPD), polymorph conversion; conditions: upon heating
Method: X-Ray Powder Diffraction patterns were collected on a Bruker AXS C2 GADDS diffractometer using Cu Kα radiation (40 kV, 40 mA), automated XYZ stage, laser video microscope for auto-sample positioning and a HiStar 2-dimensional area detector. X-ray optics consists of a single Göbel multilayer mirror coupled with a pinhole collimator of 0.3 mm. A weekly performance check is carried out using a certified standard NIST 1976 Corundum (flat plate). The beam divergence, i.e. the effective size of the X-ray beam on the sample, was approximately 4 mm. A Θ-Θ continuous scan mode was employed with a sample—detector distance of 20 cm which gives an effective […] of 3.2°-29.7°. Typically the sample would be exposed to the X-ray beam for 120 seconds. The software used for data collection was GADDS for XP/2000 4.1.43 and the data were analysed and presented using Diffrac Plus EVA v13.0.0.2 or v15.0.0.0. Samples run under ambient conditions were prepared as flat plate specimens using powder as received without grinding. Approximately 1-2 mg of the sample was lightly pressed on a glass slide to obtain a flat surface. Samples run under non-ambient conditions were mounted on a silicon wafer with heat-conducting compound. The sample was then heated to the appropriate temperature at 30° C./min and subsequently held isothermally for 1 minute before data collection was initiated. […]

Compound | GVS hysteresis [1] | moisture uptake by GVS [1] [%] | GVS water uptake [1] | XRPD post GVS [1] | XRPD stability post 7 days ([2]; 25° C. & 96% RH) | XRPD stability post 7 days ([2]; 40° C. & 75% RH) | stability after 7 days storage at elevated humidity conditions [2] | TGA decomposition onset [3] | thermodynamic stability of the pair Form 1/Form 2 [4] | VT-XRPD: conversion to Form 1 starts at [5]
N#Cc1ccc(COc2ccc(C#Cc3ccc(C(F)(F)[C@](O)(Cn4cnnn4)c4ccc(F)cc4F)nc3)cc2)cc1 [Compound 14] | (no hysteresis observed) | ~1.6 | ca. 1.6% water uptake over | unchanged | Unchanged by XRPD | Unchanged by XRPD | stable | Decomposition onset at ~300 °C |  | 
N#Cc1ccc(COc2ccc(C#Cc3ccc(C(F)(F)[C@](O)(Cn4cnnn4)c4ccc(F)cc4F)nc3)cc2)cc1 [Compound 5 (Anhydrous Form 1)] | (slight hysteresis observed) | ~1.3 | ca. 1.3% water uptake over | unchanged | Unchanged by XRPD | Unchanged by XRPD | stable | Decomposition onset at ~200 °C | thermodynamically stable form | 
N#Cc1ccc(COc2ccc(C#Cc3ccc(C(F)(F)[C@](O)(Cn4cnnn4)c4ccc(F)cc4F)nc3)cc2)cc1 [Compound 5 (Anhydrous Form 2)] | (no hysteresis observed) | ~0.7 | ca. 0.7% water uptake over | unchanged | Unchanged by XRPD | Unchanged by XRPD | remained stable | Decomposition onset at ~200 °C |  | at 105 °C
